Source: ChEMBL document CHEMBL1150078, “A Novel Class of Non-Peptidic Endothelin Antagonists Isolated from the Medicinal Herb Phyllanthus niruri” (J Nat Prod, 1995)
pIC50: −log10 of the molar value. Active and inactive are the calls of the source. The rule behind the calls is not given here.

Columns and labels:
Assay type in all cases: cell-based
Endothelin-1 receptor [1] = molecular target: T1, Endothelin-1 receptor (Homo sapiens, UniProt P25101); assay: Displacement of [125I]endothelin-1 from human recombinant ETA receptor expressed in CHO cells
T1 sequence (P25101 whole entry): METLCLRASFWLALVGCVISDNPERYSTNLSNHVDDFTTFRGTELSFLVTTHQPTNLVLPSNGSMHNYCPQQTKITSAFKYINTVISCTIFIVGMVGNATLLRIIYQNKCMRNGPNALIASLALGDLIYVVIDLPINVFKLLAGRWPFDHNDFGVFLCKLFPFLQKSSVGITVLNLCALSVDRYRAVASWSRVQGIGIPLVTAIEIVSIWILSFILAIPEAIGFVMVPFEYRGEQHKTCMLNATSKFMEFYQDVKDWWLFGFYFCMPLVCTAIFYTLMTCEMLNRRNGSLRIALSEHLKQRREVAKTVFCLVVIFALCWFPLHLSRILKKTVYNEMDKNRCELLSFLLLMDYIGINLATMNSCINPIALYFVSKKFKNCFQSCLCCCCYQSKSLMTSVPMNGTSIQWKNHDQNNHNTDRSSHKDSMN

[2] = molecular target: T2, Endothelin receptor type B (Homo sapiens, UniProt P24530); assay: Displacement of [125I]endothelin-1 from human recombinant ETB receptor expressed in CHO cells
T2 sequence (P24530 whole entry): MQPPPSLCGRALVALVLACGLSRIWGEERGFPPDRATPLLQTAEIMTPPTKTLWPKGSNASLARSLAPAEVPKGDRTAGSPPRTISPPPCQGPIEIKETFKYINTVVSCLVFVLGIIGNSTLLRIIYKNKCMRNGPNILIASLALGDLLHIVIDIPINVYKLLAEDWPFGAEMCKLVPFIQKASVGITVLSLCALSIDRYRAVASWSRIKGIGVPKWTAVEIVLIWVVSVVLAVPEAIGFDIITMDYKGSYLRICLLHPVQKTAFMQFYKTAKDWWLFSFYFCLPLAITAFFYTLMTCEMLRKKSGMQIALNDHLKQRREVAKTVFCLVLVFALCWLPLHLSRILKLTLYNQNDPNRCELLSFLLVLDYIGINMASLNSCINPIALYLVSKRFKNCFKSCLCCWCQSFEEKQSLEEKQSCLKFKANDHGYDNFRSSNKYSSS

[3] = molecular target: T3, Endothelin-1 receptor (Homo sapiens) (UniProt P25101); assay: Activity at human recombinant ETA receptor expressed in CHO cells assessed as inhibition of endothelin-1-induced increase in extracellular acidification rate at 20 uM by microphysiometry
T3 sequence (whole entry): T1 sequence (P25101 whole entry)

[4] = molecular target: T4, Endothelin receptor type B (Homo sapiens) (UniProt P24530); assay: Activity at human recombinant ETB receptor expressed in CHO cells assessed as inhibition of endothelin-1-induced increase in extracellular acidification rate at 20 uM by microphysiometry
T4 sequence (whole entry): T2 sequence (P24530 whole entry)

Endothelin-1 receptor [5] = molecular target: T5, Endothelin-1 receptor (Rattus norvegicus, UniProt P26684); assay: Displacement of [125I]endothelin-1 from ETA receptor in rat A10 cells by scintillation counting
T5 sequence (P26684 whole entry): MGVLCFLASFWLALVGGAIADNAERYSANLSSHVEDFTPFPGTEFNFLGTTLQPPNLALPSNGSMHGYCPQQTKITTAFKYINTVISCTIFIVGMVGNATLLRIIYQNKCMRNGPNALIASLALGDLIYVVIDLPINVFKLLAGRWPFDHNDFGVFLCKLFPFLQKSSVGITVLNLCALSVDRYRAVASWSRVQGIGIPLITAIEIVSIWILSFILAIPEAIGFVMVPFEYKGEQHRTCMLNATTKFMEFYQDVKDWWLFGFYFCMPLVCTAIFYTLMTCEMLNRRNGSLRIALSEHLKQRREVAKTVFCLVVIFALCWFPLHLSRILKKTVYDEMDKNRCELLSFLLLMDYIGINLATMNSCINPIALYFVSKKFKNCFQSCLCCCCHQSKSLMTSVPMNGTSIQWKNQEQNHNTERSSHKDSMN

[6] = molecular target: T3, Endothelin-1 receptor (Homo sapiens); assay: Activity at human recombinant ETA receptor expressed in CHO cells assessed as inhibition of endothelin-1-induced increase in extracellular acidification rate at 100 uM by microphysiometry
[7] = molecular target: T4, Endothelin receptor type B (Homo sapiens); assay: Activity at human recombinant ETB receptor expressed in CHO cells assessed as inhibition of endothelin-1-induced increase in extracellular acidification rate at 100 uM by microphysiometry

Row | Compound | pIC50 (Endothelin-1 receptor [1]) | pIC50 [2] | inhibition [3] | Activity [4] | pIC50 (Endothelin-1 receptor [5]) | inhibition [6] | Activity [7]
1 | COc1cc(C)c(OC)c2c1C[C@@H](C(=O)O)C[C@H]2c1ccccc1 | 3.80 |  |  |  |  |  | 
2 | COC[C@@H]1Cc2cc(OC)c3c(c2[C@H](c2ccc(OC)c(OC)c2)[C@H]1COC)OCO3 [HYPOPHYLLANTHIN] | 4.40 | < 3.30 | 28% | inactive | 3.24 | 39% | inactive
3 | COC[C@@H]1Cc2cc3c(c(OC)c2[C@H](c2ccc(OC)c(OC)c2)[C@H]1COC)OCO3 [NIRTETRALIN] | 4.12 | < 3.30 |  |  | 3.40 |  | 
4 | COC[C@H](Cc1ccc(OC)c(OC)c1)[C@H](COC)Cc1ccc(OC)c(OC)c1 [PHYLLANTHIN] | < 3.00 | < 3.30 |  |  | < 3.00 |  | 
